{
  "source": "patent US20250221920A1",
  "about": "“Antioxidant Compositions” (THE BOOTS COMPANY PLC, priority 2022, published 2025)",
  "assay": "Total Antioxidant Capacity (TAC) assay, Cell Biolabs kit, copper ion reagent, absorbance at 490 nm",
  "type": "biochemical",
  "settings": "triplicate",
  "experimental": "Total antioxidant capacity (TAC) was determined using a kit (Cell Biolabs, Inc) as follows; the test samples were diluted in water and a buffer to reach a final antioxidant agent to buffer ratio ranging from 1:1 to 1:1,000,000. 20 ul of test sample or control (ascorbic acid or green tea) were added to the wells of 96 well plate, followed by 180 μL of 1X Reaction Buffer (provided with the kit). The absorbance of the reaction mix in each well was measured at 490 nm to get an initial reading. 50 μL of the 1X Copper Ion Reagent (provided with the kit) were added to each well to initiate the reaction. The reaction was allowed to carry on for 5 minutes on an orbital shaker and 50 μL of 1X Stop Solution (provided with the kit) added to each well to terminate the reaction. The colour change was assessed using a plate reader at 490 nm.\nThe stronger the colour change at the end of the reaction, the higher the spectrophotometric value, and the higher the antioxidant capacity of the antioxidant agents.\n21 antioxidant compounds were tested in triplicate at antioxidant: buffer ratios ranging from 1:1 to 1:1,000,000.\nThe actual TAC of each of these compounds was calculated using the TAC assay described above, and compared with the predicted values to determine the % difference in TAC.",
  "data": [
    {"substance": "Dimethylmethylmethoxy chromanol", "values": [
      {"measurement": "Total Antioxidant Capacity (TAC)", "setting": "Antioxidant:Buffer 1:1 (concentration 1)", "result": 1.839},
      {"measurement": "Total Antioxidant Capacity (TAC)", "setting": "Antioxidant:Buffer 1:10 (concentration 0.1)", "result": 1.807},
      {"measurement": "Total Antioxidant Capacity (TAC)", "setting": "Antioxidant:Buffer 1:100 (concentration 0.01)", "result": 1.824}
    ]}
  ]
}
